In brackets after ≈: the same amount, converted by molar mass.

These results are taken from ChEMBL document CHEMBL1149877, “Synthesis and biological activities of 2-oxocycloalkylsulfonamides” (Bioorg Med Chem, 2008).

The subject of one experiment is Botrytis cinerea. Kind of experiment: Antifungal activity against Botrytis cinerea Pers. It is filed as functional, organism-based.
For a further experiment, the system named is Sclerotinia sclerotiorum. Put plainly: Antifungal activity against Sclerotinia sclerotiorum. Type of experiment: functional, organism-based.
In the next experiment the test system is Bel-7402. Kind of experiment: Antitumor activity against human Bel7402 cells at 100 ug/mL by SRB method. Type of experiment: functional.
For the next experiment, the system named is KB. Put plainly: Antitumor activity against human KB cells at 100 ug/mL by SRB method. Type of experiment: functional.
In another experiment the test system is HL-60. Put plainly: Antitumor activity against human HL60 cells at 100 ug/mL by MTT method. It is filed as functional.
In a further experiment the test system is BGC-823. Kind of experiment: Antitumor activity against human BGC823 cells at 100 ug/mL by SRB method. It is filed as functional.

Regarding `O=C1CCCCC1S(=O)(=O)Nc1ccccc1Cl` (centres undefined), the concentration giving a half-maximal response (EC50) with Botrytis cinerea came out at 35.2 mg/L (≈ 122 µM); in the experiment with Sclerotinia sclerotiorum, 69.4 mg/L (≈ 241 µM). Besides, the inhibition at 100 µg/mL in the experiment with Bel-7402 is 1.98%; in the experiment on KB, -10.1%; in the experiment with HL-60 it was 0.29%; with BGC-823, 29.2%.

As to `O=C1CCCCC1S(=O)(=O)Nc1ccc(Cl)cc1` (centres undefined), the EC50 in the experiment on Botrytis cinerea was found to be 17 mg/L (≈ 59 µM); with Sclerotinia sclerotiorum, 53.4 mg/L (≈ 186 µM). In addition, the inhibition at 100 µg/mL in the experiment with Bel-7402 is 4.47%; in the experiment with KB, -3.83%; in the experiment on HL-60, -13%; with BGC-823 it was 16%.

In the case of `O=C1CCCCC1S(=O)(=O)Nc1ccc(Cl)c(Cl)c1` (centres undefined), the values for the 50% effective concentration (EC50) in the experiment with Botrytis cinerea and in the experiment with Sclerotinia sclerotiorum were 7.23 mg/L (≈ 22.4 µM) and 24.2 mg/L (≈ 75.2 µM), respectively. The inhibition at 100 µg/mL in the experiment with Bel-7402 was found to be 1.39%; with KB, 17.8%; in the experiment with HL-60, 13.5%; with BGC-823, 5.54%.

In the case of `Cc1cc(F)ccc1NS(=O)(=O)C1CCCCC1=O` (centres undefined), the results for the EC50 in the experiment on Botrytis cinerea and with Sclerotinia sclerotiorum were 37.7 mg/L (≈ 132 µM) and 137 mg/L (≈ 480 µM), respectively. In addition, the inhibition at 100 µg/mL in the experiment with Bel-7402 is 3.22%; with KB it was -3.72%; with HL-60, -0.99%; in the experiment with BGC-823, 28.7%.

For `O=C1CCCCC1S(=O)(=O)Nc1ccc(Cl)cc1C(F)(F)F` (centres undefined), the values for the EC50 with Botrytis cinerea and in the experiment on Sclerotinia sclerotiorum were 2.12 mg/L (≈ 5.96 µM) and 47.5 mg/L (≈ 134 µM), respectively. Also, the inhibition at 100 µg/mL was 20.9% with Bel-7402, 11.2% in the experiment on KB, 78.6% in the experiment on HL-60 and 36.4% in the experiment on BGC-823.

As to `Cc1ccc(NS(=O)(=O)C2CCCCC2=O)c(C)c1` (centres undefined), the EC50 in the experiment on Botrytis cinerea is 17 mg/L (≈ 60.3 µM); in the experiment with Sclerotinia sclerotiorum it was 112 mg/L (≈ 397 µM). The inhibition at 100 µg/mL in the experiment with Bel-7402 was found to be 0.52%; with KB it was 7.97%; in the experiment with HL-60 it was 12.2%; with BGC-823, 15.6%.

As for `O=C1CCCCC1S(=O)(=O)Nc1cc(C(F)(F)F)cc(C(F)(F)F)c1` (centres undefined), the half-maximal effective concentration (EC50) with Botrytis cinerea was 3.96 mg/L (≈ 10.2 µM); with Sclerotinia sclerotiorum, 24.1 mg/L (≈ 62 µM). Moreover, the inhibition at 100 µg/mL turned out to be 66.9% in the experiment with Bel-7402, 76% in the experiment on KB, 95.9% in the experiment with HL-60 and 70.8% in the experiment on BGC-823.

For `O=C1CCCCC1S(=O)(=O)N1CCOCC1` (centres undefined), the figures for the concentration for a half-maximal effect (EC50) with Botrytis cinerea and in the experiment with Sclerotinia sclerotiorum were 85.2 mg/L (≈ 345 µM) and 331 mg/L (≈ 1340 µM), respectively. Further, the inhibition at 100 µg/mL with Bel-7402 is 6.01%; in the experiment on KB, -4.35%; with HL-60, 11%; in the experiment on BGC-823 it was 21.3%.

On to `O=C1CCCCC1S(=O)(=O)Nc1ccccc1Br` (centres undefined), for which the EC50 with Botrytis cinerea stood at 50.6 mg/L (≈ 152 µM); in the experiment with Sclerotinia sclerotiorum, 47.8 mg/L (≈ 144 µM). Also, the inhibition at 100 µg/mL is 22.1% in the experiment on Bel-7402, -14.4% in the experiment with KB, 15.3% in the experiment with HL-60 and 29.6% in the experiment with BGC-823.

Take `O=C1CCCCC1S(=O)(=O)Nc1cccc(C(F)(F)F)c1` (centres undefined): the concentration for a half-maximal effect (EC50) in the experiment on Botrytis cinerea was 85.2 mg/L (≈ 265 µM); in the experiment with Sclerotinia sclerotiorum it was 144 mg/L (≈ 448 µM). Also, the inhibition at 100 µg/mL with Bel-7402 was 11.4%; with KB it was -6.3%; with HL-60, 17%; in the experiment with BGC-823 it was 21.6%.

Turning to `Cc1cccc(NS(=O)(=O)C2CCCCC2=O)c1C` (centres undefined), the EC50 in the experiment with Botrytis cinerea was found to be 24.2 mg/L (≈ 86 µM); with Sclerotinia sclerotiorum it was 59.3 mg/L (≈ 211 µM). The inhibition at 100 µg/mL in the experiment on Bel-7402 is 21.8%; in the experiment with KB it was -20.6%; in the experiment on HL-60, 9.38%; in the experiment with BGC-823 it was 24.5%.

Consider `COc1cc(OC)nc(NS(=O)(=O)C2CCCCC2=O)n1` (centres undefined), for which the EC50 with Botrytis cinerea is 28.6 mg/L (≈ 90.8 µM); in the experiment with Sclerotinia sclerotiorum, 197 mg/L (≈ 626 µM). Also, the inhibition at 100 µg/mL in the experiment on Bel-7402 came out at 39.3%; with KB it was 2.73%; in the experiment with HL-60, 2.62%; in the experiment on BGC-823 it was 26.4%.

`O=C1CCCCCC1S(=O)(=O)Nc1ccc(Cl)c(Cl)c1` (centres undefined): the EC50 in the experiment on Botrytis cinerea was 2.38 mg/L (≈ 7.08 µM); in the experiment on Sclerotinia sclerotiorum it was 16.4 mg/L (≈ 48.7 µM). In addition, the inhibition at 100 µg/mL with Bel-7402 is 4.03%; in the experiment on KB, -6.3%; in the experiment on HL-60 it was 15%; in the experiment with BGC-823, 28.9%.

In the case of `Cc1cccc(NS(=O)(=O)C2CCCCCC2=O)c1C` (centres undefined), the concentration for a half-maximal effect (EC50) with Botrytis cinerea came out at 11.6 mg/L (≈ 39.3 µM); in the experiment on Sclerotinia sclerotiorum, 47.6 mg/L (≈ 161 µM). The inhibition at 100 µg/mL with Bel-7402 is 12.1%; with KB it was 2.01%; in the experiment on HL-60, 22.9%; in the experiment on BGC-823, 23.8%.

`O=C1CCCCCC1S(=O)(=O)Nc1cc(C(F)(F)F)cc(C(F)(F)F)c1` (centres undefined): the EC50 in the experiment with Botrytis cinerea was found to be 2.43 mg/L (≈ 6.02 µM); in the experiment with Sclerotinia sclerotiorum, 8.05 mg/L (≈ 20 µM). The inhibition at 100 µg/mL in the experiment on Bel-7402 was 45.3%; in the experiment on KB, 59%; in the experiment on HL-60, 95.8%; with BGC-823, 57%.

Take `Cc1ccc(NS(=O)(=O)C2CCCCC2=O)cc1` (centres undefined): the results for the EC50 in the experiment on Botrytis cinerea and in the experiment with Sclerotinia sclerotiorum were 21.2 mg/L (≈ 79.4 µM) and 116 mg/L (≈ 434 µM), respectively. Besides, the inhibition at 100 µg/mL with Bel-7402 was 27.5%; in the experiment with KB it was -22.2%; in the experiment on HL-60 it was -3.55%; with BGC-823, 32%.

In the case of `O=C1CCCCC1S(=O)(=O)Nc1cc(C(F)(F)F)ccc1C(F)(F)F` (centres undefined), the results for the EC50 in the experiment on Botrytis cinerea and in the experiment with Sclerotinia sclerotiorum were 3.66 mg/L (≈ 9.4 µM) and 70.5 mg/L (≈ 181 µM), respectively. The inhibition at 100 µg/mL with Bel-7402 stood at 68.3%; with KB it was 68.6%; in the experiment with HL-60, 95.7%; in the experiment on BGC-823 it was 57.7%.

Regarding `N#Cc1c(Cl)c(Cl)c(Cl)c(C#N)c1Cl` [CHLOROTHALONIL], the concentration giving a half-maximal response (EC50) with Sclerotinia sclerotiorum was 7.16 mg/L (≈ 26.9 µM).

`CC12CC1(C)C(=O)N(c1cc(Cl)cc(Cl)c1)C2=O` (centres undefined) [PROCYMIDONE] came in with an EC50 in the experiment on Botrytis cinerea of 2.45 mg/L (≈ 8.62 µM).
